# Molecular target: human CTPS1 (Homo sapiens (Human), UniProt P17812)
# Assay: hCTPS1 biochemical assay (ADP-Glo)
# Details: hCTPS1 25 nM, ATP 120 uM, UTP 160 uM, GTP 60 uM, L-Glutamine 100 uM, 25 degrees C
# human CTPS1, sequence (P17812 whole entry): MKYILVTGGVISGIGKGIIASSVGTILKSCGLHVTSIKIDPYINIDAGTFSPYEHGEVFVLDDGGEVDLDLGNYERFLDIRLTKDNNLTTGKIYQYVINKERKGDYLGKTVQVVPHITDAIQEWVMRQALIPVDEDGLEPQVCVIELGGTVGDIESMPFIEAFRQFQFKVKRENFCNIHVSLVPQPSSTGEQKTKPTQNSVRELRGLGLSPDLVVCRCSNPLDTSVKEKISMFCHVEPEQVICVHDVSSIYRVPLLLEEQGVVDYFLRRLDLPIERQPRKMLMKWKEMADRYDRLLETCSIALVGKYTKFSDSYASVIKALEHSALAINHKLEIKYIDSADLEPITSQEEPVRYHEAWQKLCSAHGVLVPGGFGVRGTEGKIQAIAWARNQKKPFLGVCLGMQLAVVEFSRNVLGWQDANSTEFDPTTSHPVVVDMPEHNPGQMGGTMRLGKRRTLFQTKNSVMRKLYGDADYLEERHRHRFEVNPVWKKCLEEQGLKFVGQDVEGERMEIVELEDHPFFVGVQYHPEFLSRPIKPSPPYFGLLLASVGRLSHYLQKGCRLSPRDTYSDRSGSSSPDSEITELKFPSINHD
row,SMILES,IC50 [nM]
1,"O=C(NCc1cc(NS(=O)(=O)C2CC2)ccn1)c1ncc(-c2cncc(C(F)(F)F)c2)s1 [I-251, N-((4-(cyclopropanesulfonamido)pyridin-2-yl)methyl)-5-(5-(trifluoromethyl)pyridin-3-yl)thiazole-2-carboxamide]",100 to 1000
2,COc1cncc(-c2ccc(C(=O)NCc3cc(NS(=O)(=O)C4CC4)ccn3)nc2)n1 [I-24],< 100
3,"C[C@@H]1Cc2nc(C(=O)NCc3cc(NS(=O)(=O)C4CC4)ccn3)cnc2N(C2CCC2)C1 [I-264, (R)-5-cyclobutyl-N-((4-(cyclopropanesulfonamido)pyridin-2-yl)methyl)-7-methyl-5,6,7,8-tetrahydropyrido[2,3-b]pyrazine-2-carboxamide]",≥ 1000
4,"CCOc1cncc(-c2cnc(C(=O)N[C@H](C[C@@H]3CCCCN3C)c3cc(NS(=O)(=O)C4CC4)ccn3)s2)n1 (single isomer, unassigned) [I-136]",< 100
5,"CCOc1cncc(-c2cnc(C(=O)N[C@H](CN3CCOCC3)c3cc(NS(=O)(=O)C4CC4)ccn3)s2)n1 (single isomer, unassigned) [I-236]",< 100
6,"CCOc1cncc(-c2cnc(C(=O)N[C@@H](CC3CCN(C)CC3)c3cc(NS(=O)(=O)C4CC4)ccn3)s2)n1 [I-99, (S)—N-(1-(4-(cyclopropanesulfonamido)pyridin-2-yl)-2-(1-methylpiperidin-4-yl)ethyl)-5-(6-ethoxypyrazin-2-yl)thiazole-2-carboxamide]",< 100
7,"CCOc1cncc(-c2cnc(C(=O)N[C@@](C)(CCOC)c3cc(NS(=O)(=O)C4CC4)ccn3)s2)n1 [I-163, (S)—N-(2-(4-(cyclopropanesulfonamido)pyridin-2-yl)-4-methoxybutan-2-yl)-5-(6-ethoxypyrazin-2-yl)thiazole-2-carboxamide]",< 100
8,CCOc1cncc(-c2ccc(C(=O)NCc3cc(NS(=O)(=O)C4CC4)ccn3)c(F)c2)n1 [I-25],< 100
9,"CCOc1cncc(-c2cnc(C(=O)N[C@@H](CN3CCCCC3)c3cc(NS(=O)(=O)C4CC4)ccn3)s2)n1 (single isomer, unassigned) [I-214]",< 100
10,"CCOc1cncc(-c2ccc(NC(=O)Cc3cc(NS(=O)(=O)C4CC4)ccn3)nc2)n1 [I-40, 2-(4-(cyclopropanesulfonamido)pyridin-2-yl)-N-(5-(6-ethoxypyrazin-2-yl)pyridin-2-yl)acetamide]",< 100
11,"CCOc1cncc(-c2ccc(C(=O)N3CCC[C@H]3c3ccnc(NS(=O)(=O)C4CC4)n3)c(F)c2)n1 [I-286, N-[4-[(2S)-1-[4-(6-ethoxypyrazin-2-yl)-2-fluorobenzoyl]pyrrolidin-2-yl]pyrimidin-2-yl]cyclopropanesulfonamide]",< 100
12,"CCOc1cncc(-c2cnc(C(=O)NCc3c(F)ccc(NS(=O)(=O)C4CC4)c3F)s2)n1 [I-248, N-[(3-cyclopropanesulfonamido-2,6-difluorophenyl)methyl]-5-(6-ethoxypyrazin-2-yl)-1,3-thiazole-2-carboxamide]",< 100
13,O=C(NCc1cc(NS(=O)(=O)C2CC2)ccn1)c1ncc(-c2cnc3[nH]cc(CC(F)F)c3n2)s1 [I-215],< 100
14,"CCOc1cncc(-c2cnc(C(=O)N3CCNC[C@@H]3c3ccnc(NS(=O)(=O)C4CC4)n3)s2)n1 [I-167, (R)—N-(4-(1-(5-(6-ethoxypyrazin-2-yl)thiazole-2-carbonyl)piperazin-2-yl)pyrimidin-2-yl)cyclopropanesulfonamide]",≥ 1000
15,"CCOc1cncc(-c2ccc(NC(=O)[C@](F)(CC)c3cc(NS(=O)(=O)C4CC4)ccn3)nc2)n1 [I-259, (S)-2-(4-(cyclopropanesulfonamido)pyridin-2-yl)-N-(5-(6-ethoxypyrazin-2-yl)pyridin-2-yl)-2-fluorobutanamide]",< 100
16,"CCOc1cncc(-c2ccc(C(=O)NCc3cc(NS(=O)(=O)CC(F)(F)F)ccn3)cc2)n1 [I-65, 4-(6-ethoxypyrazin-2-yl)-N-((4-((2,2,2-trifluoroethyl)sulfonamido)pyridin-2-yl)methyl)benzamide]",< 100
17,"CCOc1cncc(-c2cnc(C(=O)NC(c3cc(NS(=O)(=O)C4CC4)ccn3)C3CCN(C)CC3)s2)n1 (stereo not drawn) [I-146, N-((4-(cydopropanesulfonamido)pyridin-2-yl)(1-methylpiperidin-4-yl)methyl)-5-(6-ethoxypyrazin-2-yl)thiazole-2-carboxamide]",< 100
18,"C[C@H]1Cc2nc(C(=O)NCc3cc(NS(=O)(=O)C4CC4)ccn3)cnc2N(C2CCC2)C1 [I-263, (S)-5-cyclobutyl-N-((4-(cyclopropanesulfonamido)pyridin-2-yl)methyl)-7-methyl-5,6,7,8-tetrahydropyrido[2,3-b]pyrazine-2-carboxamide]",≥ 1000
19,"CCOc1cncc(-c2cnc(C(=O)N[C@@H](CN3CCOCC3)c3cc(NS(=O)(=O)C4CC4)ccn3)s2)n1 (single isomer, unassigned) [I-235]",< 100
20,"O=C(NC1(c2csc(NS(=O)(=O)C3CC3)n2)CC1)c1ccc2ccccc2n1 [I-2, N-(1-(2-(cyclopropanesulfonamido)thiazol-4-yl)cyclopropyl)quinoline-2-carboxamide]",≥ 1000
21,"CCOc1cncc(-c2cnc(C(=O)N[C@@H](CCOC)c3cc(NS(=O)(=O)C4CC4)ccn3)s2)n1 [I-183, (S)—N-(1-(4-(cyclopropanesulfonamido)pyridin-2-yl)-3-methoxypropyl)-5-(6-ethoxypyrazin-2-yl)thiazole-2-carboxamide]",< 100

# Further lines, results first:
row,IC50 [nM],SMILES
1,< 100,"CCOc1cncc(-c2cnc(C(=O)N3CCC[C@@H]3c3cncc(NS(=O)(=O)C4CC4)c3)s2)n1 [I-225, (R)—N-(5-(1-(5-(6-ethoxypyrazin-2-yl)thiazole-2-carbonyl)pyrrolidin-2-yl)pyridin-3-yl)cyclopropanesulfonamide]"
2,< 100,"CCOc1cncc(-c2ccc(C(=O)NCc3cc(NS(=O)(=O)C4CC4)cnn3)nc2)n1 [I-37, N-[(5-cyclopropanesulfonamidopyridazin-3-yl)methyl]-5-(6-ethoxypyrazin-2-yl)pyridine-2-carboxamide]"
3,< 100,CCOc1cncc(-c2sc(C(=O)NC(CC)c3cc(NS(=O)(=O)C4CC4)ccn3)nc2C)n1 (stereo not drawn) [I-227]
4,< 100,"CCOc1cncc(-c2cnc(C(=O)N[C@H](CCN(C)C)c3cc(NS(=O)(=O)C4CC4)ccn3)s2)n1 [I-189, (R)—N-(1-(4-(cyclopropanesulfonamido)pyridin-2-yl)-3-(dimethylamino)propyl)-5-(6-ethoxypyrazin-2-yl)thiazole-2-carboxamide]"
5,< 100,"CCOc1cncc(-c2cnc(C(=O)N[C@H](c3cc(NS(=O)(=O)C4CC4)ccn3)[C@H]3CCOC3)s2)n1 (single isomer, unassigned) [I-95]"
6,< 100,O=C(NCc1cc(NS(=O)(=O)C2CC2)ccn1)c1ncc(-c2cncc(OCC(F)(F)F)n2)s1 [I-243]
7,< 100,CCOc1cncc(-c2ccc(NC(=O)Cc3cc(NS(=O)(=O)C4CC4)ccn3)c(F)c2)n1 [I-39]
8,< 100,"CCOc1cncc(-c2ccc(C(=O)NC3(c4cccc(NS(=O)(=O)C(F)F)c4)CC3)s2)n1 [I-269, N-(1-(3-((difluoromethyl)sulfonamido)phenyl)cyclopropyl)-5-(6-ethoxypyrazin-2-yl)thiophene-2-carboxamide]"
9,< 100,"CCOc1cncc(-c2cnc(C(=O)N[C@H](c3cc(NS(=O)(=O)C4CC4)ccn3)C3CCN(C)CC3)s2)n1 [I-148, (S)—N-((4-(cyclopropanesulfonamido)pyridin-2-yl)(1-methylpiperidin-4-yl)methyl)-5-(6-ethoxypyrazin-2-yl)thiazole-2-carboxamide]"
